Assay results reported in PubChem BioAssay AID1963825 (Molecular Pharmacology Branch, DTP, NCI, 2024).

Assay: Anticancer human tumor 997537-175-T-J1-PDC patient-derived colon adenocarcinoma cell line growth inhibition [POLQ]
Settings: 997537-175-T-J1-PDC complex spheroid viability, combination with POLQ inhibitors; for IC50: curve of first compound; for viability, T/C: stronger effect = lower value
Outline: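 Three-cell-type spheroids modelling solid tumor plus stroma served as the readout system; POL inhibitors were tested individually and in combination, concentration ranges set by clinical Cmax where known.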
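Further: luminescence signal used as a surrogate for viable cells; spheroids exposed to drugs for seven days before readout.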

CCCS(=O)(=O)Nc1ccc(F)c(C(=O)c2c[nH]c3ncc(-c4ccc(Cl)cc4)cc23)c1F + COC1C(OC(N)=O)C(O)C(Oc2ccc3c(O)c(NC(=O)c4ccc(O)c(CC=C(C)C)c4)c(=O)oc3c2C)OC1(C)C
IC50 (second compound 0.0316 µM): 5.71 µM | IC50 (second compound 0.1 µM): 7.59 µM | IC50 (second compound 0.316 µM): 6.66 µM | IC50 (second compound 1 µM): 5.26 µM | IC50 (second compound 3.16 µM): 6.2 µM | IC50 (second compound 10 µM): 4.78 µM | viability, T/C (second compound 0.0316 µM, first compound 0.0316 µM): 93.4% | viability, T/C (second compound 0.0316 µM, first compound 0.1 µM): 96% | viability, T/C (second compound 0.0316 µM, first compound 0.316 µM): 87.1% | viability, T/C (second compound 0.0316 µM, first compound 1 µM): 84.8% | viability, T/C (second compound 0.0316 µM, first compound 3.16 µM): 71.5% | viability, T/C (second compound 0.0316 µM, first compound 10 µM): 30.6% | viability, T/C (second compound 0.1 µM, first compound 0.0316 µM): 102% | viability, T/C (second compound 0.1 µM, first compound 0.1 µM): 92.6% | viability, T/C (second compound 0.1 µM, first compound 0.316 µM): 84.9% | viability, T/C (second compound 0.1 µM, first compound 1 µM): 78% | viability, T/C (second compound 0.1 µM, first compound 3.16 µM): 77% | viability, T/C (second compound 0.1 µM, first compound 10 µM): 41.2% | viability, T/C (second compound 0.316 µM, first compound 0.0316 µM): 82.8% | viability, T/C (second compound 0.316 µM, first compound 0.1 µM): 91.6% | viability, T/C (second compound 0.316 µM, first compound 0.316 µM): 77.8% | viability, T/C (second compound 0.316 µM, first compound 1 µM): 84.1% | viability, T/C (second compound 0.316 µM, first compound 3.16 µM): 75% | viability, T/C (second compound 0.316 µM, first compound 10 µM): 36.2% | viability, T/C (second compound 1 µM, first compound 0.0316 µM): 86.4% | viability, T/C (second compound 1 µM, first compound 0.1 µM): 79.5% | viability, T/C (second compound 1 µM, first compound 0.316 µM): 73.2% | viability, T/C (second compound 1 µM, first compound 1 µM): 75.2% | viability, T/C (second compound 1 µM, first compound 3.16 µM): 72.7% | viability, T/C (second compound 1 µM, first compound 10 µM): 21.7% | viability, T/C (second compound 3.16 µM, first compound 0.0316 µM): 95.6% | viability, T/C (second compound 3.16 µM, first compound 0.1 µM): 78.9% | viability, T/C (second compound 3.16 µM, first compound 0.316 µM): 77.3% | viability, T/C (second compound 3.16 µM, first compound 1 µM): 73.5% | viability, T/C (second compound 3.16 µM, first compound 3.16 µM): 78% | viability, T/C (second compound 3.16 µM, first compound 10 µM): 30.1% | viability, T/C (second compound 10 µM, first compound 0.0316 µM): 81.4% | viability, T/C (second compound 10 µM, first compound 0.1 µM): 84% | viability, T/C (second compound 10 µM, first compound 0.316 µM): 90.8% | viability, T/C (second compound 10 µM, first compound 1 µM): 85.6% | viability, T/C (second compound 10 µM, first compound 3.16 µM): 63.9% | viability, T/C (second compound 10 µM, first compound 10 µM): 25.3%
